Test results taken from PubChem BioAssay (NCI).
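Interpolation was linear, between the two tested concentrations surrounding the appropriate level; five concentrations were tested over 48 hours in 96-well plates. Definition used: TGI = concentration required for complete inhibition of growth.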

Key:
Test in all cases: DTP human tumour cell line panel, 48 h
DLD-1 colon = system: DLD-1 colon
RXF-631 renal = system: RXF-631 renal
KM20L2 colon = system: KM20L2 colon
LXFL 529 NSCLC = system: LXFL 529 NSCLC
DMS 273 small cell lung = system: DMS 273 small cell lung
M19-MEL melanoma = system: M19-MEL melanoma

| SMILES | TGI (DLD-1 colon) [µM] | TGI (RXF-631 renal) [µM] | TGI (KM20L2 colon) [µM] | TGI (LXFL 529 NSCLC) [µM] | TGI (DMS 273 small cell lung) [µM] | TGI (M19-MEL melanoma) [µM] |
| --- | --- | --- | --- | --- | --- | --- |
| Cn1c(O)c(C(=O)NC2CCCCC2)c(=O)n(C)c1=S | 24 | 20.1 | 23.4 | 16 |  |  |
| O=C(Nc1cc(Cl)c(Cl)cc1Cl)C(=O)C1C(=O)NC(=S)NC1=O | > 100 | > 100 | > 100 | > 100 | > 100 | > 100 |
| CC1=CCC(O)C=CC(C)C(O)C(C)C=C(C)C(=O)c2c(O)c(C)cc3c2C(=O)C(N)=C(NC(=O)/C=C\C=C/C=CC(C)C(O)CC1=O)C3=O (centres undefined) | > 100 |  | > 100 | > 100 | > 100 | > 100 |
| CCCCCCCCCCCC(=O)OCC(C[As](=O)(O)O)OC(=O)CCCCCCCCCCC (centres undefined) | 31.3 |  | 20 | 5.21 | 10.1 | 15.8 |
| O=Cc1ccccc1COC(=O)c1cc(C(=O)OCc2ccccc2C=O)c(C(=O)OCc2ccccc2C=O)cc1C(=O)OCc1ccccc1C=O | > 100 |  | > 100 | > 100 | > 100 | > 100 |
| Cc1cc(N(CCC#N)CCC#N)ccc1/C=C(\NC(=O)/C=C/c1ccccc1)C(N)=O | > 100 |  | > 100 | > 100 | > 100 | > 100 |
| CCN(CC)C1CC(O[C@H]2C[C@](O)(C(=O)CO)Cc3c(O)c4c(c(O)c32)C(=O)c2c(OC)cccc2C4=O)OC(C)C1O (some centres undefined) | 0.26 | 11.9 | 0.416 | 1.1 | 0.161 | 0.167 |
| Nc1nc([O-])c2c(n1)[n+](C1OC(CO)C(O)C1O)cn2CCO (centres undefined) | > 100 | > 100 | > 100 | > 100 | > 100 | > 100 |
| C[Si](C)(C)OC1CC(=O)OC1n1cc(F)c(=O)[nH]c1=O (centres undefined) | > 100 | > 100 | > 100 | > 100 | > 100 | > 100 |
| O=c1cc(-c2ccc(Oc3ccccc3)cc2)[nH]c2cc3c(cc12)OCO3 | > 100 |  | > 100 | > 100 | > 100 | > 100 |
| CN=C(SC)N(C)c1nc(=[N+](C)C)ss1 |  | 16.4 |  | > 100 | > 100 |  |
| CC(=O)O[C@H]1C(=O)[C@@]2(C)C(C(OC(=O)c3ccccc3)[C@]3(O)CC(OC(=O)C(O)C(NC(=O)c4ccc(C(F)(F)F)cc4)c4ccccc4)C(C)=C1C3(C)C)[C@]1(OC(C)=O)CO[C@@H]1C[C@@H]2O (some centres undefined) | 28.9 |  | 0.174 |  | 0.53 | 0.271 |
| CCOC(=O)CC(C)C1(C(=O)OCC)CCCCC1=O (centres undefined) | > 100 | > 100 | > 100 | > 100 | 32.5 | > 100 |
| CN(C)CC1CCCC(CN(C)C)C1OC(=O)c1ccccc1 (centres undefined) | > 100 |  | > 100 | > 100 | > 100 | > 100 |
| Cc1cc(NS(=O)(=O)c2ccc(Nc3c4ccccc4nc4c(C(=O)N5CCN(CCO)CC5)cccc34)cc2)no1 | > 100 |  | > 100 | > 100 | > 100 | > 100 |
| C=C(C)[C@H]1Cc2c(ccc3c2O[C@@H]2COc4cc(OC)c(OC)cc4[C@@H]2C3=O)O1 | > 100 |  |  | 7.87 | 18.3 | > 73 |
| O=C(Nc1ccccc1-c1nc2ccccc2[nH]c1=O)c1ccccc1 | 68.2 |  | > 100 | 69.2 | 52.6 | 91.2 |
| O=C1c2ccsc2C(=O)c2sc(CO)cc21 | 0.326 |  | 0.352 | 0.304 | 0.115 |  |
